# Laboratory results published in publication PMC6274786 (International Journal of Molecular Sciences, 2018).
# Like-named read-outs stand apart in the source and are kept apart here.
# Columns and labels:
# [1] = tested on: STR-induced seizure; experiment: Strychnine (STR)-induced seizure; assay type: in vivo, Wistar rats; conditions: for protective effect in STR-induced seizure (in words): 30 min observation, vs saline-treated group; for STR-Induced Seizure (protection class): STR 3.5 mg/kg
# Method: (§1) In this study and according to previously used protocols, two chemical agents have been used to induce seizures, namely pentylenetetrazole (PTZ, 60 mg/kg, i.p.) and strychnine (STR, 3.5 mg/kg, i.p.). PTZ 60 mg/kg or STR 3.5 mg/kg were administered i.p. to all groups of seven rats (n = 7), that is, animals pretreated with vehicle or test compounds 1–16. Vehicle, VPA (300 mg/kg, i.p.), [26, 47, 48, 49] or test compounds 1–16 (10 mg/kg, i.p.) were systemically administered 30–45 min before PTZ (60 mg/kg, i.p.) or STR (3.5 mg/kg, i.p.) injection, and animals were directly observed for any signs of convulsion for a duration of 30 min. The observed scores as well as percent protection against generalized tonic-clonic seizure (GTCS) were graded and scaled according to the Racine scale (stage 0, no change in behavior; stage 1, stereotype mouthing, eye blinking, and/or mild facial clonus; stage 2, head nodding and/or severe facial clonus; stage 3, myoclonic jerk in forelimbs; stage 4, clonic convulsions in the forelimbs with rearing; stage 5, generalized colonic convulsions associated with loss of balance) to evaluate the protection provided by the respective test compound against seizures. The animals were divided into eighteen groups of seven rats (n = 7) and treated as follows.
# (§2) (1) Control group injected with vehicle + PTZ (SAL group), (2) positive control group in which rats were injected with VPA (300 mg/kg) + PTZ (VPA group), and animals in the test groups (3)–(18) were systemically administered with test compounds 1–16 (10 mg/kg), respectively. An additional PTZ experiment was conducted using three different groups of seven rats (n = 7), the H3R ligand with the most promising protection in PTZ model was administered at doses of 2.5, 5, or 15 mg/kg, i.p. 30–45 min before the PTZ challenge. […] The same experimental procedure was followed in the STR-induced seizure model applying the reference drug VPA, which was used at a dose of 300 mg/kg, i.p. (Figure 3, Table 2).
# [2] = tested on: MES-induced seizure; experiment: Maximal electroshock (MES)-induced seizure; assay type: in vivo, Wistar rats; conditions: 10 mg/kg i.p.; for MES-Induced Seizure (protection class): 50 Hz, 120 mA, 1 s
# From the text: As previously described, the seizures were induced in rats with a 50 Hz alternating current of 120 mA intensity. The current was applied through ear electrodes for 1 s. Protection against the spread of MES-induced seizure was defined as the abolition of the tonic hind limb extension (THLE) component of the seizure. For the first screening of protective effects of test compounds 1–16 in the MES-induced seizure model, the animals were divided into eighteen groups of seven rats (n = 7) as follows; group (1) control group injected with vehicle (SAL), group (2) positive control group in which rats were injected with PHT at a dose of 10 mg/kg (this being the minimal dose of PHT that protected animals against the spread of MES-induced seizures without mortality), and groups (3)–(18) animals in the experimental groups were administered H3R antagonists 1–16 at a dose of 10 mg/kg. In another MES experiment in three separate groups of six rats (n = 6), H3R antagonist 4 with the most promising protection in MES model was administered at doses of 2.5, 5, or 15 mg/kg, i.p. 30–45 min before the MES challenge.
# [3] = target: T1, human H1 receptor (Homo sapiens, UniProt P35367); experiment: Radioligand binding, membranes from CHO-K1 cells; conditions: for fold lower affinity at hH1- and H4Rs than at H3R: selectivity toward H3Rs
# T1 construct: purchased PerkinElmer; host or cells: CHO-K1 cells, stably transfected (membranes)
# Method: Radioligand binding was performed as previously described using membranes from CHO-K1 cells stably transfected with the human H1 receptor (PerkinElmer., Waltham, MA, USA). Data were fitted to a one-site curve-fitting equation with Prism 6 (GraphPad Software, city, state, country) and Ki values were estimated from the Cheng–Prusoff equation [44].
# [4] = target: T2, human histamine H3R (Homo sapiens, UniProt Q9Y5N1); experiment: [3H]Nα-methylhistamine radioligand displacement assay, HEK-293 cell membranes; assay type: binding
# T2 construct: expressed in transfected cells
# Method: As described previously, the affinity for the human histamine H3R was tested utilizing radioligand displacement assays with [^3H]N^α-methylhistamine at membrane preparations from human embryonic kidney (HEK)-293 cells, stably expressing the receptor. […] The analysis of data was conducted by the software GraphPad Prism 7 (San Diego, CA, USA), using the “one-site competition” equation. Ki values were calculated from the 50 percent of inhibitory concentration (IC50) values according to the Cheng-Prusoff equation [44]
# [5] = target: T3, hH4R (Homo sapiens, UniProt Q9H3N8); experiment: H4R radioligand displacement assay, Sf9 cell membrane preparations; assay type: binding
# T3 construct: expressed in transfected cells; host or cells: Sf9 insect cells (membrane preparations)
# Method: H4R radioligand displacement assays were performed with Sf9 cell membrane preparations, expressing the hH4R, as described previously. Assays ran in triplicates with four appropriate concentrations of the test compound. Data were analyzed by GraphPad Prism 7, using the “one-site competition” equation.
# [6] = tested on: PTZ-induced seizure; experiment: Pentylenetetrazole (PTZ)-induced seizure; assay type: in vivo, Wistar rats; conditions: 10 mg/kg i.p.; for protective effect in PTZ-induced seizure (in words): observed over 30 min, vs saline-treated group; for PTZ-Induced Seizure (protection class): PTZ 60 mg/kg
# Method: as §1, §2
# [7] = tested on: Hepatoma HepG2 cell line; experiment: Antiproliferative assay (MTS), HepG2; assay type: cell-based; conditions: 72 h incubation
# Method: Human embryonic kidney (HEK)-293 cell line (ATCC CRL-1573) was kindly donated by Prof. Dr. […] (Pharmaceutical Institute, Pharmaceutical Chemistry I, University of Bonn). Hepatoma HepG2 (ATCC HB-8065) cell line was kindly donated by the Department of Pharmacological Screening, Jagiellonian University Medical College. The cell cultures' growth conditions in presence of H3R antagonist 4 were applied as described before. The cells' viability was assessed after 72 h of incubation with H3R antagonist and the following references: doxorubicin (Sigma-Aldrich) and carbonyl cyanide 3-chlorophenylhydrazone (CCCP) (Sigma-Aldrich). CellTiter 96® AQueous non-radioactive cell proliferation assay (MTS) was purchased from Promega® and added to each well in the volume of 20 μL. The cells were then incubated for 2-5 h. The microplate reader EnSpire (PerkinElmer Ltd., Waltham, MA, USA) was used to measure the absorbance at 490 nm.
# [8] = target: CYP2D6 (Homo sapiens, UniProt P10635); experiment: Luminescent CYP2D6 P450-Glo assay; conditions: human
# Method: The metabolic interactions of H3R antagonist 4 were determined by the luminescent P450-Glo™ 3A4 and 2D6 assays purchased from Promega®. All enzymatic reactions were performed according to the manufacturer protocols and as previously described. […] The luminescence was measured with a microplate reader EnSpire (PerkinElmer). The final concentration of H3R antagonist 4 was in the range of 0.1–25 µM, whereas reference inhibitory effects ranged from 0.01 µM to 10 µM. The IC50 values’ calculations were performed by GraphPad Prism™ software (version 5.01, San Diego, CA, USA).
# [9] = 10 mg/kg i.p. co-administered with RAMH 10 mg/kg i.p.
# T1 sequence (P35367 whole entry): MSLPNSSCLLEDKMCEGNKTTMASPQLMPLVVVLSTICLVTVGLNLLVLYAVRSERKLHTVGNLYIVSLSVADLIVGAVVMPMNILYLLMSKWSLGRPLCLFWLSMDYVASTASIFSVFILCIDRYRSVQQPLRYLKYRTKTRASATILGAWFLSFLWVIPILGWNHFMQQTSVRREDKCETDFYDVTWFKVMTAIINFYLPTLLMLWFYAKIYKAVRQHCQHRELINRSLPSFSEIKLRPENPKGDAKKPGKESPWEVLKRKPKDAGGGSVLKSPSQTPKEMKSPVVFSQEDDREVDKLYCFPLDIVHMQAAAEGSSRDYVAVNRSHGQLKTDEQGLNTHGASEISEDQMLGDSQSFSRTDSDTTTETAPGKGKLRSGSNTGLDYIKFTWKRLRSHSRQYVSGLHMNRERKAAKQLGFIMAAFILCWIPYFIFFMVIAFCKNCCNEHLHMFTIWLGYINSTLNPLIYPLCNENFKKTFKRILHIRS
# T2 sequence (Q9Y5N1 whole entry): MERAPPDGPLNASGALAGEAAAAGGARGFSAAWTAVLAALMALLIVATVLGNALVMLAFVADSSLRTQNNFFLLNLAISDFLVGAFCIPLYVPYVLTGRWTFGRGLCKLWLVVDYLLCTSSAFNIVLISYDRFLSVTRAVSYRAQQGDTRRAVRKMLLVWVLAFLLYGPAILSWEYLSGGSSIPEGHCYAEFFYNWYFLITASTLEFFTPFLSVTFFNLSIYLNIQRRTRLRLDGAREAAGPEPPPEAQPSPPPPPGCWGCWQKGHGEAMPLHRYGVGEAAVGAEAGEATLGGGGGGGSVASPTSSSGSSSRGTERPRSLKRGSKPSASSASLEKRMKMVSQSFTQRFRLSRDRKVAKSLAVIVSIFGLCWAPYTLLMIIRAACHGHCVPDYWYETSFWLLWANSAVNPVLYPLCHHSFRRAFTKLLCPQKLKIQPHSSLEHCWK
# T3 sequence (Q9H3N8 whole entry): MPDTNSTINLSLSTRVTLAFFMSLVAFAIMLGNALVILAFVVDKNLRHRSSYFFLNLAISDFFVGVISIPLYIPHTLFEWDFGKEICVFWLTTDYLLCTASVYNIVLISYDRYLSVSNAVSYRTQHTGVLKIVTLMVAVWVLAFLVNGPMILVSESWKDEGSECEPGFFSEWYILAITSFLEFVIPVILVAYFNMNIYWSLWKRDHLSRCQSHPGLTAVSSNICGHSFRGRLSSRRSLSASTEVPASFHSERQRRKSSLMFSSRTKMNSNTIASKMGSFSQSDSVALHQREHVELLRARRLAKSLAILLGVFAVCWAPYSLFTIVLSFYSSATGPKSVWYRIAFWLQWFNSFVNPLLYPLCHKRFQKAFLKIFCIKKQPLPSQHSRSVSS
# Sequence of CYP2D6 (P10635 whole entry): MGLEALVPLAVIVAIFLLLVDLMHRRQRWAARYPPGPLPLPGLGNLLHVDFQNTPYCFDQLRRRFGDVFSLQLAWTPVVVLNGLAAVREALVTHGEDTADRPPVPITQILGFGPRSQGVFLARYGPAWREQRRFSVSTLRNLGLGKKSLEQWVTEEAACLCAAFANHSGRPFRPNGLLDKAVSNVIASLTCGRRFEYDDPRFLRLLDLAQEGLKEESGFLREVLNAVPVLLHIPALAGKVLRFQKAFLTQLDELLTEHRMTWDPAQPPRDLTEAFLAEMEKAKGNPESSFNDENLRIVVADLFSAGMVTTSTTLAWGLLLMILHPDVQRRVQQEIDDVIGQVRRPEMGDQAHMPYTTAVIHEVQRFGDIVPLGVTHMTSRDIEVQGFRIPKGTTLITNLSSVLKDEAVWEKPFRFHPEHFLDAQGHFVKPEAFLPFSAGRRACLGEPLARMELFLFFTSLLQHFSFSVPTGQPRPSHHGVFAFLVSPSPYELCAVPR
Structure (SMILES),protective effect in STR-induced seizure (in words) ([1]; 10 mg/kg i.p.),STR-Induced Seizure (protection class) ([1]; 10 mg/kg i.p.),MES-Induced Seizure (protection class) [2],Ki [3] [nM],fold lower affinity at hH1- and H4Rs than at H3R [3],Ki [5] [nM],protective effect in PTZ-induced seizure (in words) [6],PTZ-Induced Seizure (protection class) [6],Ki [4] [nM],further results
"Fc1ccc(OCCCCCCN2CCCCCC2)cc1.O=C(O)C(=O)O [Ligand 13, 1-(6-(4-fluorophenoxy)hexyl)azepane hydrogen oxalate]",moderate protective effect,"+ (moderate protective effect (tonic hind limb extension (THLE) duration in the range of 2–5 s, seizure score in the range of 2–4))",−,1340,at least 10 fold,> 10000,weak protection,"+ (moderate protective effect (tonic hind limb extension (THLE) duration in the range of 2–5 s, seizure score in the range of 2–4))",,"STR-Induced Seizure % Protection against GTCS ([1]; 2.5 mg/kg i.p.): 14.29%; STR-Induced Seizure Average Seizure Score ([1]; 2.5 mg/kg i.p.): 4.86 ± 0.13; STR-Induced Seizure % Protection against GTCS ([1]; 5 mg/kg i.p.): 85.71%; STR-Induced Seizure Average Seizure Score ([1]; 5 mg/kg i.p.): 3.00 ± 0.31; STR-Induced Seizure % Protection against GTCS ([1]; 10 mg/kg i.p.): 100%; STR-Induced Seizure Average Seizure Score ([1]; 10 mg/kg i.p.): 2.00 ± 0.35; STR-Induced Seizure % Protection against GTCS [1, 9]: 100%; STR-Induced Seizure Average Seizure Score [1, 9]: 2.14 ± 0.35; STR-Induced Seizure % Protection against GTCS ([1]; 15 mg/kg i.p.): 100%; STR-Induced Seizure Average Seizure Score ([1]; 15 mg/kg i.p.): 2.17 ± 0.31; MES-Induced Seizure Average THLE [2]: 6.43 ± 1.14 s; protective effect in MES-induced seizure (in words) ([2]; vs saline-treated group): without protection; Ki ([4]; mean with 95% confidence interval, read-out: In Vitro Affinity Ki (hH3R) in nM [CI]): 137 nM; PTZ-Induced Seizure % Protection against GTCS [6]: 85.71%; PTZ-Induced Seizure Average Seizure Score [6]: 2.14 ± 0.47"
"N#CC(C#N)=NNc1cccc(Cl)c1 [CCCP, carbonyl cyanide 3-chlorophenylhydrazone, reference compound]",,,,,,,,,,concentration with significant decrease of HepG2 proliferation/viability [7]: 10 µM
"CC1CCCN(CCCCCCOc2ccc(C(=O)c3ccccc3)cc2)C1.O=C(O)C(=O)O (stereo not drawn) [Ligand 6, (4-(6-(3-methylpiperidin-1-yl)hexyloxy)phenyl)(phenyl)methanone hydrogen oxalate]",,−,"+ (moderate protective effect (tonic hind limb extension (THLE) duration in the range of 2–5 s, seizure score in the range of 2–4))",915 to 1340,,,,−,52.8,IC50 [8]: 670 nM
"O=C(O)C(=O)O.O=C(c1ccccc1)c1ccc(OCCCCCCN2CCCCCC2)cc1 [Ligand 7, (4-(6-(azepan-1-yl)hexyloxy)phenyl)(phenyl)methanone hydrogen oxalate]",failed to exhibit appreciable protection,−,"+ (moderate protective effect (tonic hind limb extension (THLE) duration in the range of 2–5 s, seizure score in the range of 2–4))",915,at least 10 fold,> 10000,full protective activities,"++ (high protective effect (THLE duration <1, seizure score 0))",40.5,
